{
  "source": "patent US5567724A",
  "about": "“Alkaline and acid phosphatase inhibitors in treatment of neurological disorders” (Cortex Pharmaceuticals, Inc., priority 1994, dated 1996)",
  "key": {"[1]": {"tested_on": "HT4 neurotumor cells", "assay": "β-amyloid peptide toxicity in HT4 neurotumor cells, LDH release", "format": "cell-based, rat", "conditions": "100 μM inhibitor; 50 μM β-amyloid peptide 25-35 and 250 μM quisqualate; 24 hours after treatment", "experimental": "HT4 neurotumor cells were treated with 50 μM β-amyloid peptide 25-35 and 250 μM quisqualate. The cells were also treated with 100 μM of the following alkaline phosphatase inhibitors: 1,10 phenanthroline, phenylalanine, IBMX, bromotetramisole, purine, and theophylline. The death of the neurons was determined by measuring LDH activity in the media 24 hours after treatment. The release of LDH from the cells into the surrounding media indicates cell death.\nFIG. 1 illustrates the results of the study of Example 1. […] Cells subjected to no treatment had only a low level of LDH activity."}, "[2]": {"tested_on": "Hippocampal neurons", "assay": "Okadaic acid with β-amyloid on hippocampal neurons, LDH efflux", "format": "cell-based", "conditions": "50 nM okadaic acid with 50 μM β-amyloid (β25-35), 24 hours, DME medium, 37° C.", "experimental": "Hippocampal neurons were treated with 50 μM β-amyloid (β25-35)and 50 nM okadaic acid for 24 hours in Dulbeccois Modified Eagle's (DME) medium at 37° C. Following the 24-hour treatment period, an aliquot of media was removed for determination of LDH efflux from the neurons, which is an indicator of cell death. Each bar in FIG. 3, except the bar representing okadaic acid alone, represents the mean of 4 wells ± the standard deviation. The bar representing okadaic acid alone represents the mean of 2 wells ± the standard deviation."}, "[3]": {"tested_on": "Porcine kidney alkaline phosphatase", "assay": "Alkaline phosphatase assay with pNPP substrate, porcine kidney enzyme", "format": "biochemical", "conditions": "pNPP 5 mM, pH 5.5 lysis buffer", "experimental": "(§1) Porcine kidney (0.01 U) and calf intestinal (0.002 U) alkaline phosphatases were assayed in the presence of levamisole (200 μM) or vanadate salt (5-500 μM) using pNPP (5 mM) as substrate. The assay was carried out in pH 5.5 lysis buffer. Each bar in FIG. 4 represents the mean of quadruplicates ± the standard deviation. The results of the experiment of Example 4 are illustrated in FIG. 4. […] The effect of treatment on humans with AD using arylimidothiazole derivatives having alkaline phosphatase inhibitory activity is described below in Examples 5-9."}, "[4]": {"tested_on": "calf intestinal alkaline phosphatase", "assay": "Alkaline phosphatase assay with pNPP substrate, calf intestinal enzyme", "format": "biochemical", "conditions": "pNPP 5 mM, pH 5.5 lysis buffer", "experimental": "as §1"}, "[5]": {"tested_on": "Dorsal root ganglion cells", "assay": "Vinblastine-induced toxicity in dorsal root ganglion cells, live/dead staining", "format": "cell-based", "conditions": "Na,K-tartrate 500 μM; NGF 50 ng/ml; vinblastine 500 nM; 24 hours", "experimental": "Dorsal root ganglion cells were treated with Nerve Growth Factor (NGF) (50 ng/ml), vinblastine (500 nM) and Na,K-tartrate (500 μM) for 24 hours. Following the treatment, the dorsal root ganglion cells were stained with ethidium bromide and fluorescein diacetate to stain dead and live cells, respectively.\nFIG. 5 illustrates the results of the study of Example 16. Percentage cell viability is determined from the ratio of live cells to total cell number. Each bar in […] represents the mean of 3 wells ± the standard deviation."}, "[6]": {"tested_on": "rat embryonic hippocampal neurons", "conditions": "50 μM β-amyloid 25-35", "experimental": "To further determine the effect of alkaline phosphatase inhibitors on βamyloid peptide toxicity, rat embryonic hippocampal neurons in culture were exposed to 50 μM β-amyloid 25-35 in the presence of levamisole concentrations of 250 μM and 500 μM."}, "[7]": {"experimental": "Human subjects diagnosed as suffering from AD are administered 50 mg of an arylimidothiazole derivative, such as levamisole, orally every eight hours for three days. The treatment is repeated every 14 days for a period of 6 months. […] A human patient diagnosed as suffering from Alzheimer's Disease is administered about 50 mg levamisole orally every eight hours for three days. The treatment is repeated every 14 days for a period of 6 months. […] Human subjects diagnosed as suffering from AD are administered 0.05 mg/kg of an arylimidothiazole derivative, such as levamisole, orally every day for a period of six months. […] A human patient diagnosed as suffering from Alzheimer's Disease is identified as having deteriorating symptoms of the disease. The patient is administered about 10 mg levamisole orally once per day for a period of six months."}},
  "note": "Counter-ions that a name gives are not always drawn. Like-named read-outs stand apart in the source and are kept apart here.",
  "data": [
    {"smiles": "CC(C)Cn1c(=O)n(C)c(=O)c2[nH]cnc21", "note": "[IBMX]", "values": [
      {"measurement": "LDH activity in the media (cell death)", "setting": "[1]", "value": "most effective compound tested"}
    ]},
    {"smiles": "C=C1[C@@H](O)[C@@H]2O[C@]3(CC[C@H](/C=C/[C@@H](C)[C@@H]4CC(C)=C[C@@]5(O[C@H](C[C@@](C)(O)C(=O)O)CC[C@H]5O)O4)O3)CC[C@H]2O[C@@H]1[C@@H](O)C[C@H](C)[C@H]1O[C@@]2(CCCCO2)CC[C@H]1C", "note": "[okadaic acid]", "values": [
      {"measurement": "hippocampal neuronal injury (LDH efflux)", "setting": "[2]", "value": "causes hippocampal neuronal injury"}
    ]},
    {"smiles": "[O]=[V]([O-])([O-])[O-]", "note": "[vanadate]", "values": [
      {"measurement": "Inhibition of porcine kidney alkaline phosphatase activity", "setting": "[3]; vanadate salt 5-500 μM", "value": "appear to inhibit"},
      {"measurement": "Inhibition of calf intestinal alkaline phosphatase", "setting": "[4]; vanadate 100 μM", "value": "significantly inhibited"}
    ]},
    {"smiles": "O=C(O)C(O)C(O)C(=O)O", "note": "(single isomer, unassigned) [Na,K-tartrate]", "values": [
      {"measurement": "percentage cell viability in the presence of vinblastine", "setting": "[5]", "value": "significantly increased"}
    ]},
    {"smiles": "c1ccc([C@H]2CN3CCSC3=N2)cc1", "note": "[levamisole, (-)-(S)-2,3,5,6-tetrahydro-6-phenylimidoazide [2,1-b]thiazole monohydrochloride]", "values": [
      {"measurement": "death of the neurons, as indicated by the release of LDH", "setting": "[6]; levamisole 250 μM", "value": "reduced"},
      {"measurement": "LDH activity", "setting": "[6]; levamisole 500 μM", "value": "reduced"},
      {"measurement": "Inhibition of porcine kidney alkaline phosphatase activity", "setting": "[3]; levamisole 200 μM", "value": "unexpectedly high"},
      {"measurement": "Inhibition of calf intestinal alkaline phosphatase", "setting": "[4]; levamisole 200 μM", "value": "little effect"},
      {"measurement": "symptoms of AD", "setting": "[7]; 50 mg orally every eight hours for three days, repeated every 14 days for 6 months", "value": "lessened"},
      {"measurement": "symptoms of AD", "setting": "[7]; about 10 mg orally once per day for six months", "value": "decrease"}
    ]}
  ]
}
